Measured values taken from patent US20020025929A1, “METHOD OF BUILDING AND MAINTAINING BONE” (priority 1997, published 2002).
Marks after values point to notes of the source that are not given here.

Experiments:
[1] = system: osteopenic ovariectomized rats; assay: Static and dynamic histomorphometry of L-1 vertebra; type: in vivo, Sprague-Dawley rats; conditions: OVX rats; for BFR/BS (bone formation rate) / BFR/TV (bone formation rate) / BV/TV (cancellous bone volume) / MAR (mineral apposition rate) / MS/BS (mineralizing surface) / Tb.N (trabecular number) / Tb.Sp (trabecular separation) / Tb.Th (trabecular thickness): L-1 vertebra, mean ± SEM; for BV/TV, trabecular thickness, trabecular number of L-1 vertebra (in words): second study; for MAR of L-1 vertebra (in words): compound 1a 0.01-1 mg/kg, EE2
Protocol: Oral administration was by gavage in a vehicle comprising 1 mL/kg of body weight of a 20% aqueous solution of hydroxypropyl-β-cyclodextrin. Compound 1a was administered by gavage in a vehicle of 1 mL/kg of body weight of a 20% aqueous solution of cyclodextrin. The estrogen-treated control animals were administered 0.1 mg/kg/day 17α-ethynyl estradiol by gavage.
Subcutaneous administration of PTH(1-34) was by injection of an acidified saline vehicle (0.001 N HCl and 2% heated-inactivated rat serum in physiological saline (Butler Co., Columbus, Ohio, USA).
For histomorphometry, L-1 vertebra were trimmed, using a low-speed diamond saw (Buehler Ltd., Lake Bluff, Ill.) and fixed in 70% ethanol. Specimens were stained for 4 days in Villanueva osteochrome bone stain (Polysciences Inc., Warrington, Pa.), destained, dehydrated in a graded series of alcohols, and defatted in acetone. L-1 vertebra were then infiltrated with methyl methacrylate (as described by Schenk et al. 1984) and embedded in a 75 ml: 19 ml: 2.5 g mixture of methyl methacrylate: dibutyl phthalate: benzoyl peroxide (Kodak, Rochester, N.Y.) and polymerized at room temperature. Longitudinal sections (4 and 8 μm) were cut on a Reichert-Jung 2065 microtome (Magee Scientific Inc., Dexter, Mich.). The 4 μm sections were stained with 6% silver nitrate (Von Kossa stain) before coverslipping; the 8 μm thick sections were mounted unstained for dynamic measurements. Sections were glued onto slides dipped in 0.5% gelatin, dried overnight, and coverslipped with Eukitt.
Histomorphometric measurements were made using an Optiphot-2 fluorescence microscope (Nikon, Melville, N.Y.) and a semi-automatic digitizing system (SummaSketch III, Summagraphics Co., Seymour, Conn.; KSS Image Analysis, KSS Scientific Consultants, Magna Utah) coupled to a PowerPC 7100/66 (Apple Computer, Cupertino, Calif.), using the image capture functions of NIH Image 1.59 (NIH, Bethesda, Md.). For L-1, the entire marrow region within the cortical shell was measured to derive trabecular bone parameters. Specifically, measurements were made of cancellous bone volume (BV/TV, %), trabecular thickness (Tb.Th, μm), number (Tb.N, #/mm) and separation (Tb.Sp, μm), mineralizing surface, mineral apposition rate, and bone formation rate, as previously described (Frost 1983; Jee et al. 1985; Parfitt et al., 1987).
(§1) In a second study, virgin Sprague-Dawley rats were bilaterally ovariectomized (except for the sham-operated group), the ovariectomized animals randomized, and allowed to lose bone for one month prior to treatment in the manner described above. The animal groups, each containing 7-8 animals, included sham-operated animals (SHAM); bilaterally ovariectomized animals (OVX); bilaterally ovariectomized animals treated with 0.01, 0.3 or 1 mg/kg/day of compound 1a, respectively, for three months; bilaterally ovariectomized animals treated subcutaneously with PTH(1-34) at a dose of 10 μg/kg/day for three months; bilaterally ovariectomized animals treated subcutaneously with PTH(1-34) at a dose of 10 μg/kg/day and orally with compound 1a at a dose of 0.3 mg/kg/day, both compounds administered for three months; bilaterally ovariectomized animals treated subcutaneously with PTH(1-34) at a dose of 10 μg/kg/day for forty-five days followed by gavage administration of vehicle for forty-five days; bilaterally ovariectomized animals treated subcutaneously with PTH(1-34) at a dose of 10 μg/kg/day for forty-five days followed by oral administration of only compound 1a at a dose of 0.3 mg/kg/day for forty-five days; and bilaterally ovariectomized animals treated with 17α-ethynyl estradiol administered orally at a dose of 0.1 mg/kg/day.

[2] = system: osteopenic ovariectomized rats; assay: Three point bending test of femora mid-shaft; type: in vivo, Sprague-Dawley rats; design: I (moment of inertia): unit not given beside the values; conditions: OVX rats; for cortical thickness of femora mid-shaft (in words): continuous treatment (PTH 90 days); for E (Young's modulus) / Fu (ultimate force) / I (moment of inertia) / t (cortical thickness) / u (toughness) / σu (strength): femora mid-shaft, mean ± SEM; for load to failure (Fu) and toughness of femora mid-shaft (in words): 1a dose-dependent up to 1 mg/kg, EE2 0.1 mg/kg, PTH (1-34) 45 and 90 days, combination
Protocol: Bone strength was measured for the femoral neck, midshaft, and the L-6 vertebra. Femora were thawed before testing, and bone strength was measured on intact femora using a three point bending test. Load was applied midway between two supports that were 15 mm apart. The femora were positioned so the loading point was 7.5 mm proximal from the distal popliteal space and bending occurred about the medial-lateral axis. Specimens were tested in a saline bath at 37° C. Each specimen was submerged in the saline bath for three minutes before testing to allow equilibration of temperature. Load-displacement curves were recorded at a crosshead speed of 1 mm/sec using a servo-hydraulic materials testing machine (MTS Corp., Minneapolis, Minn.) and an x-y recorder (Hewlett Packard 7090A, Palo Alto, Calif.). The measurements included: cross-sectional moment of inertia (I), cortical thickness (t), ultimate load (Fu), ultimate stress (σu), Young's modulus (E), and toughness (u). These values were calculated as described previously (Turner and Burr 1993; Turner et al. 1996).
as §1

[3] = Cmpd 1a 0.01 mg/kg/day oral, 3 months
[4] = Cmpd 1a 0.3 mg/kg/day oral, 3 months
[5] = Cmpd 1a 1 mg/kg/day oral, 3 months
[6] = 3 months: PTH (1-34) 10 μg/kg/day s.c., PTH + 1a 0.3 mg/kg/day oral, EE2 0.1 mg/kg/day oral
[7] = 3 months: PTH (1-34) 10 μg/kg/day s.c., 1a 0.3 mg/kg/day oral + PTH, EE2 0.1 mg/kg/day oral

COc1ccc(-c2sc3cc(O)ccc3c2Oc2ccc(OCCN3CCCCC3)cc2)cc1 [Compound 1a, 6-hydroxy-2-(4-methoxyphenyl)-3-[4-(2-piperidin-1-ylethoxy)phenoxy]-benzo[b]thiophene]
BFR/BS (bone formation rate) [1, 3]: 11.45 ± 1.9 μ/d × 100
BFR/TV (bone formation rate) [1, 3]: 40.30 ± 11.41 %/y
BV/TV (cancellous bone volume) [1, 3]: 24.4 ± 5.9^s %
MAR (mineral apposition rate) [1, 3]: 0.72 ± .06 μ/d
MS/BS (mineralizing surface) [1, 3]: 15.90 ± 2.21^s.o %
Tb.N (trabecular number) [1, 3]: 5.77 ± 1.2^s #/mm
Tb.Sp (trabecular separation) [1, 3]: 137.6 ± 37^s μ
Tb.Th (trabecular thickness) [1, 3]: 42.4 ± 6 μ
BFR/BS (bone formation rate) [1, 4]: 9.48 ± 1.43^o μ/d × 100
BFR/TV (bone formation rate) [1, 4]: 35.51 ± 9.14 %/y
BV/TV (cancellous bone volume) [1, 4]: 22.3 ± 3^s %
MAR (mineral apposition rate) [1, 4]: 0.66 ± .11 μ/d
MS/BS (mineralizing surface) [1, 4]: 14.47 ± 1.78^o %
Tb.N (trabecular number) [1, 4]: 6.07 ± .87^s #/mm
Tb.Sp (trabecular separation) [1, 4]: 131 ± 23^s.o μ
Tb.Th (trabecular thickness) [1, 4]: 36.8 ± 3^s μ
BFR/BS (bone formation rate) [1, 5]: 9.44 ± 2.4^o μ/d × 100
BFR/TV (bone formation rate) [1, 5]: 29.94 ± 8.7 %/y
BV/TV (cancellous bone volume) [1, 5]: 22.1 ± 5.2^s %
MAR (mineral apposition rate) [1, 5]: 0.72 ± .08 μ/d
MS/BS (mineralizing surface) [1, 5]: 13.05 ± 2.44^s %
Tb.N (trabecular number) [1, 5]: 5.24 ± .82^s #/mm
Tb.Sp (trabecular separation) [1, 5]: 153.1 ± 35^s μ
Tb.Th (trabecular thickness) [1, 5]: 42.4 ± 7.3 μ
dynamic parameters MS/BS, MAR, BFR/BS, BFR/TV of L-1 vertebra (in words) ([1]; continuous treatment): decreased MS/BS and BFR in a dose-dependent manner to Sham and EE2 levels
BV/TV, trabecular thickness, trabecular number of L-1 vertebra (in words) ([1]; continuous treatment): little effect on BV/TV, trabecular thickness, or trabecular number
MAR of L-1 vertebra (in words) ([1]; continuous treatment): not different from OVX
cortical thickness of femora mid-shaft (in words) [2]: intermediate between Sham and OVX
E (Young's modulus) [2, 3]: 9081 ± 446
Fu (ultimate force) [2, 3]: 160 ± 5^s
I (moment of inertia) [2, 3]: 4.35 ± .21
t (cortical thickness) [2, 3]: .635 ± .020^s,o
u (toughness) [2, 3]: 3.72 ± .26^s,o
σu (strength) [2, 3]: 199 ± 5^s,o
E (Young's modulus) [2, 4]: 8844 ± 431
Fu (ultimate force) [2, 4]: 164 ± 4^s,o
I (moment of inertia) [2, 4]: 4.05 ± .17^o
t (cortical thickness) [2, 4]: .654 ± .012^s,o
u (toughness) [2, 4]: 4.13 ± .24^o
σu (strength) [2, 4]: 217 ± 5^o
E (Young's modulus) [2, 5]: 10087 ± 520
Fu (ultimate force) [2, 5]: 174 ± 4^o
I (moment of inertia) [2, 5]: 4.17 ± .21
t (cortical thickness) [2, 5]: .671 ± .010^s,o
u (toughness) [2, 5]: 4.52 ± .25^o
σu (strength) [2, 5]: 228 ± 9^o
load to failure (Fu) and toughness of femora mid-shaft (in words) [2]: improved load to failure (Fu) and toughness in a dose-dependent manner to above OVX and not different from Sham at 1 mg/kg

C#C[C@]1(O)CC[C@H]2[C@@H]3CCc4cc(O)ccc4[C@H]3CC[C@@]21C [EE2, 17α-ethynyl estradiol]
BFR/BS (bone formation rate) [1, 6]: 8.76 ± 1.99^o μ/d × 100
BFR/TV (bone formation rate) [1, 6]: 32.76 ± 6.9 %/y
BV/TV (cancellous bone volume) [1, 6]: 21.8 ± 4.1^s %
MAR (mineral apposition rate) [1, 6]: 0.58 ± .05^s.o μ/d
MS/BS (mineralizing surface) [1, 6]: 14.97 ± 3.07^o %
Tb.N (trabecular number) [1, 6]: 6.20 ± .66 #/mm
Tb.Sp (trabecular separation) [1, 6]: 127.5 ± 17.5 μ
Tb.Th (trabecular thickness) [1, 6]: 35.3 ± 5.6^s μ
BV/TV, trabecular thickness, trabecular number of L-1 vertebra (in words) ([1]; continuous treatment): little effect on BV/TV, trabecular thickness, or trabecular number
MAR of L-1 vertebra (in words) ([1]; continuous treatment): lowered MAR to below OVX, Sham, and compound 1a
cortical thickness of femora mid-shaft (in words) [2]: intermediate between Sham and OVX
E (Young's modulus) [2, 7]: 10002 ± 844
Fu (ultimate force) [2, 7]: 182 ± 11^o
I (moment of inertia) [2, 7]: 4.42 ± .33
t (cortical thickness) [2, 7]: .686 + .015^o
u (toughness) [2, 7]: 4.62 ± .52^o
σu (strength) [2, 7]: 225 ± 13^o
load to failure (Fu) and toughness of femora mid-shaft (in words) [2]: above OVX and not different from Sham
